Measurements from ChEMBL document CHEMBL1141009, “Synthesis of BODIPY-labeled alkylphosphocholines with leishmanicidal activity, as fluorescent analogues of miltefosine” (2008).

test system: Leishmania donovani; assay: Antileishmanial activity against Leishmania donovani promastigotes; format: functional; details: read-out: LD50 (the source's name)

SMILES | LC50 [µM]
CC1=CC(C)=[N+]2C1=Cc1c(C)c(CCCCCCCCCCCOP(=O)([O-])OCC[N+](C)(C)C)c(C)n1[B-]2(F)F | 5.2
CCC1=C(C)C2=Cc3c(C)c(CCCCCCCCCCCOP(=O)([O-])OCC[N+](C)(C)C)c(C)n3[B-](F)(F)[N+]2=C1C | 4.3
CCCCCCCCCCCCCCCCOP(=O)([O-])OCC[N+](C)(C)C [MILTEFOSINE] | 6.5
